From EP0115714A1, “Pharmaceutical composition with psychotropic dopaminergic action” (priority 1983, dated 1984)

What was measured:
[1] = tested on: toxicité de groupe due à l'amphétamine; assay: Antagonism of amphetamine group toxicity (predictive of antipsychotic activity); type: in vivo, souris Charles River CD1; conditions: Mus musculus, ip; mice, compound i.p. 30 min before amphetamine 30 mg/kg i.p.; mortality over 24 h; confidence limits 10,1 - 26,7; read-out: DE50 (limites de confiance) d'antagonisme de la mortalité due à l'amphétamine
Text: L'activité antipsychotique d'un composé représentatif, le monomaléate de 2-(1-pipérazinyl)pyrimidine, a été déterminée dans le test de l'antagonisme de la toxicité de groupe due à l'amphétamine (J.H. Burn et al., Arch. Int. Pharmacodyn. Ther. 1958, 113, 290).
Le moncmaléate de 2-(1-pipérazinyl)pyrimidine a été administré à des doses croissantes par voie intrapéritonéale à des lots de 10 souris Charles River CD1 pesant 20-22 g et groupées dans des cages de 22 cm de long, 12 cm de large et 12 cm de haute. Trente minutes après l'administration, on a injecté par voie intrapéritonéale de l'amphétamine à la dose de 30 mg/kg. La mortalité des animaux a été évaluée durant les 24 h qui ont suivi l'injection d'amphétamine et comparée, dans chaque groupe, à celle du groupe d'animaux témoins n'ayant reçu que le véhicule (sérum physiologique).
Le tableau I ci-dessous montre la dose efficace médiane (DE50) d'antagonisme de la mortalité due à l'amphétamine.

[2] = tested on: catalepsie provoquée par la prochlorpérazine; assay: Antagonism of the onset of prochlorperazine-induced catalepsy (cork test; predictive of antidepressant activity); type: in vivo, rats mâles Wistar; conditions: rats, prochlorperazine 10 mg/kg s.c. 1 h later, read 5 h after
Text: L'activité antidépressive des composés de l'invention a été évaluée dans le test de l'antagonisme vis-à-vis de l'installation de la catalepsie provoquée par la prochlorrérazine (K. Bizière et al., Arzneimittel Forschung, 1982, 32 (II), 824).
Un composé représentatif de l'invention, à savoir le monomaléate de 2-(1-pipérazinyl)pyrimidine, a été administré par voie intrapéritonéale à des groupes de 10 rats mâles Wistar pesant 220-240 g; des animaux de contrôle ont été en même temps traités par du sérum physiologique. Une heure après, les animaux ont reçu, par voie sous-cutanée, de la prochlorpérazine à une dose de […]. Cinq heures après cette administration, le nombre d'animaux cataleptiques a été estimé par le test du bouchon. Ce test consiste à positionner les animaux de telle sorte qu'ils puissent maintenir pendant au moins 20 seconds leurs pattes en appui sur une colonne formée de trois bouchons de liège superposés (hauteur totale 11 cm). Les performances réalisées pour chaque groupe d'animaux ont été comparées à celles du croupe d'animaux témoins n'ayant reçu que le véhicule et la prochlorpérazine.
Le tableau II ci-dessous montre le pourcentage d'antagonisme de l'installation de la catalepsie provoquée par la prochlorpérazine.

[3] = H.W. Stewart et al., J. Org. Chem. 1953, 18, 1478; cited from earlier work
[4] = tested on: activité antifilariale; conditions: H.W. Stewart et al., J. Org. Chem. 1953, 18, 1478; cited from earlier work

## c1cnc(N2CCNCC2)nc1 [2-(1-pipérazinyl)pyrimidine monomaléate, monomaléatede 2-(1-pipérazinyl)pyrimidine]
[1]
  ED50: 16.5 mg/kg
[2]; dose 0,1 mg/kg i.p.
  % d'antagonisme de l'installation de la catalepsie provoquée par la prochlorpérazine: 20%
[2]; dose 1 mg/kg i.p.
  % d'antagonisme de l'installation de la catalepsie provoquée par la prochlorpérazine: 80%

## c1cnc(N2CCNCC2)nc1 [2-(l-pipérazinyl)pyrimidine]
[3]
  activité analgésique: aucun n'a montré d'activité
[4]
  activité antifilariale: aucun n'a montré d'activité
